Data as given in patent US20250388553A1 (Incyte Corporation, priority 2018, published 2025).
Counter-ions that a name gives are not always drawn.

Experiments:
[1] = molecular target: PI3Kγ (p110γ) Recombinant Human Protein (Homo sapiens (Human), UniProt P48736); assay: PI3K-γ scintillation proximity assay; type: biochemical; conditions: scintillation proximity assay, recombinant human p110γ
Excerpt: Example B. PI3K-γ Scintillation Proximity Assay
(§1) Materials: [γ-^33P]ATP (10 mCi/mL) and Wheat Germ Agglutinin (WGA) YSi SPA Scintillation Beads was purchased from Perkin Elmer (Waltham, MA). Lipid kinase substrate, D-myo-Phosphatidylinositol 4,5-bisphosphate (PtdIns(4,5)P2)D (+)-sn-1,2-di-O-octanoylglyceryl, 3-O-phospho linked (PIP2), CAS 204858-53-7, was purchased from Echelon Biosciences (Salt Lake City, UT). PI3Kγ (p110γ) Recombinant Human Protein was purchased from Life technology (Grand Island, NY). ATP, MgCl2, DTT, EDTA, MOPS and CHAPS were purchased from Sigma Aldrich (St. Louis, MO).
(§2) The kinase reaction was conducted in polystyrene 384-well Greiner Bio-one white plate from Thermo Fisher Scientific in a final volume of 25 L. Inhibitors were first diluted serially in DMSO and added to the plate wells before the addition of other reaction components. The final concentration of DMSO in the assay was 2%. The PI3Kγ assay was carried out at room temperature in 20 mM MOPS, pH 6.7, 10 mM MgCl2, 5 mM DTT and CHAPS 0.03%. Reactions were initiated by the addition of ATP, the final reaction mixture consisted of 20 µM […], 0.5 μCi [γ-^33P]ATP, 13 nM PI3Kγ. Reactions were incubated for 120 min and terminated by the addition of 40 μL SPA beads suspended in quench buffer: 163 mM potassium phosphate pH 7.8, 20% glycerol, 25 mM EDTA. The final concentration of SPA beads is 1.0 mg/mL. After the plate sealing, plates were shaken overnight at room temperature and centrifuged at 1500 rpm for 10 min, the radioactivity of the product was determined by scintillation counting on Topcount (Perkin-Elmer). IC50 determination was performed by fitting the curve of percent of the solvent control activity versus the log of the inhibitor concentration using the GraphPad Prism 6.0 software.
(§3) The compounds of the Examples were tested in the assays described in Examples A, B and C and found to have the IC50s are shown in Tables A1, A2, A3 and A4.

[2] = molecular target: PI3Kδ (p1106/p85a) Recombinant Human Protein (Homo sapiens (Human), UniProt O00329); assay: PI3Kδ scintillation proximity assay; type: biochemical; conditions: scintillation proximity assay, recombinant human PI3Kδ
Excerpt: Example C. PI3Kδ Scintillation Proximity Assay
as §1, with “PI3Kδ (p1106/p85a)” for “PI3Kγ (p110γ)”, “Eurofins (St Charles, MO).” for “Life technology (Grand Island, NY).”
as §2, with “25 μL.” for “25 L.”, “The PI3Kδ” for “The PI3Kγ”, “[γ-^33P]ATP, 3.4” for “[γ-^33P]ATP, 13”, “nM PI3Kδ.” for “nM PI3Kγ.”, “Topcount (PerkinElmer).” for “Topcount (Perkin-Elmer).”
as §3

Sequence of PI3Kδ (p1106/p85a) Recombinant Human Protein (O00329 whole entry): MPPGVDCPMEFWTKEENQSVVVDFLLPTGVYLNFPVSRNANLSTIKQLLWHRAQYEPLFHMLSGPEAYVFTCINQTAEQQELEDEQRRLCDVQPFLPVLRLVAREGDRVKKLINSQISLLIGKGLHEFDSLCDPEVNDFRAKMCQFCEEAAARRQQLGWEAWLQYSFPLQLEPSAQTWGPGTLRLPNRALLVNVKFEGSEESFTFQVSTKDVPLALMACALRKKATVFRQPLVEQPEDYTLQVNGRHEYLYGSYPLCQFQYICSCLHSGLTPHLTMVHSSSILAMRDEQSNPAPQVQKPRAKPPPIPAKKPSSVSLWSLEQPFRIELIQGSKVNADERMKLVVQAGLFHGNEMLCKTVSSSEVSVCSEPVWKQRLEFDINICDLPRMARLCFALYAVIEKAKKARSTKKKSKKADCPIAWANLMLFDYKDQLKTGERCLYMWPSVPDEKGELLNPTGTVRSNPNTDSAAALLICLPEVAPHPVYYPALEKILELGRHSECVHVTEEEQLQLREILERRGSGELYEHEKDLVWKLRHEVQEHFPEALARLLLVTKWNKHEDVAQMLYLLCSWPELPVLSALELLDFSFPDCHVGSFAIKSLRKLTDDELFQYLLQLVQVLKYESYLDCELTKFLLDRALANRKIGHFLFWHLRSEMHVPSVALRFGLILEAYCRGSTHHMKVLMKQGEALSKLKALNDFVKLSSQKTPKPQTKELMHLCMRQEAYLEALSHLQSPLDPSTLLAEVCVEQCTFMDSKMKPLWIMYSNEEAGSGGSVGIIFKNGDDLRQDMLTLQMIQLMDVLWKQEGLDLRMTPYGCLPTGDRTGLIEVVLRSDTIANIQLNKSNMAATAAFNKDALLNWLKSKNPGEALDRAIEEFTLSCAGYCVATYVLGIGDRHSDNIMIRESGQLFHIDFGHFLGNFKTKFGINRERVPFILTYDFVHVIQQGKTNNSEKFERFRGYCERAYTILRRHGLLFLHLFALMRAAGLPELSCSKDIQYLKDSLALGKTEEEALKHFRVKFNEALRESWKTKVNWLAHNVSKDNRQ
Sequence of PI3Kδ (p1106/p85a) Recombinant Human Protein (P27986 whole entry partner): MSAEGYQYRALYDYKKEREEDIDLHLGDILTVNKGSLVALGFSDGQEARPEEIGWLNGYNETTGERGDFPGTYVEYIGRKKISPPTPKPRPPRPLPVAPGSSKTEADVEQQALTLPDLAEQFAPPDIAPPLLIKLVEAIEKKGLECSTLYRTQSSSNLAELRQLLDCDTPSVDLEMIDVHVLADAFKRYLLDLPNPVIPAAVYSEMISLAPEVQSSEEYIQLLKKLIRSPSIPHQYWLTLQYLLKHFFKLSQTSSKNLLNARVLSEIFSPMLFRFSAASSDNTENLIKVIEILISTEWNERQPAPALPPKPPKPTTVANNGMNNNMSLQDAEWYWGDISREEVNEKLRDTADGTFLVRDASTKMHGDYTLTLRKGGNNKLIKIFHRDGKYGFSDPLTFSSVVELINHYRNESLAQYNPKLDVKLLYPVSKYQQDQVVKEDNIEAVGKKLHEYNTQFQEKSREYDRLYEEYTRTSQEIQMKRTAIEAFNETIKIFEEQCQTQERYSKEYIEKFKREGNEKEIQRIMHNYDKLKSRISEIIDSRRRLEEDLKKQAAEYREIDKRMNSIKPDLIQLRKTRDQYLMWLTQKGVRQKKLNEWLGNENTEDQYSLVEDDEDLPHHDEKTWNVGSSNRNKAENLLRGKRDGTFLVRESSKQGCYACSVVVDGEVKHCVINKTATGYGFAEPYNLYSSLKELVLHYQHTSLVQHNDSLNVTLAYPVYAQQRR
Sequence of PI3Kγ (p110γ) Recombinant Human Protein (P48736 whole entry): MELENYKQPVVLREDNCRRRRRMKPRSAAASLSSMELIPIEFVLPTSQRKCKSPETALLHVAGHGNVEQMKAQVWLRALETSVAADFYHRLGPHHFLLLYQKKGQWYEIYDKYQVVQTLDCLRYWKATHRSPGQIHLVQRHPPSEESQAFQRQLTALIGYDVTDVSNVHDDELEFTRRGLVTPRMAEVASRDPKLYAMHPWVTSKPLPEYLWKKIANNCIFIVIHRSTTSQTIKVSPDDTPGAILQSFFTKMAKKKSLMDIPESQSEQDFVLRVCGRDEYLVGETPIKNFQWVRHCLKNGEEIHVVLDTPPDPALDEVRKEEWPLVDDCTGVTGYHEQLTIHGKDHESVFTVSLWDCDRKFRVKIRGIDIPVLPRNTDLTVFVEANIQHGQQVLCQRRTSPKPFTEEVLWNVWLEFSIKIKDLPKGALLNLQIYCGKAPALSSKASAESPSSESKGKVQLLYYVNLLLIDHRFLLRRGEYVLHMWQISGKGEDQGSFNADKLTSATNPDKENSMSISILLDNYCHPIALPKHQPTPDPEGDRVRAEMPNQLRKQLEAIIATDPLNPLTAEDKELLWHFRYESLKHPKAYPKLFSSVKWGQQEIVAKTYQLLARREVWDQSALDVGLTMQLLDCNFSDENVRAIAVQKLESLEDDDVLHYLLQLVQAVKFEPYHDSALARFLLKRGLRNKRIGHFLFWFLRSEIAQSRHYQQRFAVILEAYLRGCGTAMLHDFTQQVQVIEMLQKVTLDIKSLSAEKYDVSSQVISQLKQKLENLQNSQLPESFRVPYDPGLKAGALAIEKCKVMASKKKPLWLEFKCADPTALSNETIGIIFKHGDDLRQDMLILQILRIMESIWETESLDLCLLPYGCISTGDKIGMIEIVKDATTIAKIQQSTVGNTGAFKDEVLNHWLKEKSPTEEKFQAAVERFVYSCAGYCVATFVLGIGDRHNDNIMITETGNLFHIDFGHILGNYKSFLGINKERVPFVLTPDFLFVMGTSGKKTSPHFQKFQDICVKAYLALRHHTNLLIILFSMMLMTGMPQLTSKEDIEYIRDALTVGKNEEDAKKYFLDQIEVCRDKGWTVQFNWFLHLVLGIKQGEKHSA

Structure (SMILES)	IC50 ([1]; Table A2) [nM]	IC50 ([2]; Table A2) [nM]	IC50 ([1]; Table A3) [nM]	IC50 ([2]; Table A3) [nM]
Cc1ccc(C(O)(C(N)=O)C(F)(F)F)cc1-c1cnc(N)c(C#Cc2cnn(C)c2)n1 (centres unmarked) [Example 54, 2-(3-(5-amino-6-((1-methyl-1H-pyrazol-4-yl)ethynyl)pyrazin-2-yl)-4-methylphenyl)-3,3,3-trifluoro-2-hydroxypropanamide]	< 100	< 100	–	–
Cc1ccc(C(O)(C(N)=O)C(F)(F)F)cc1-c1cnc(N)c(C#Cc2ccccn2)n1 (centres unmarked) [Example 55, 2-(3-(5-amino-6-(pyridin-2-ylethynyl)pyrazin-2-yl)-4-methylphenyl)-3,3,3-trifluoro-2-hydroxypropanamide]	< 100	< 100	–	–
Cc1ccc(C(O)(C(N)=O)C(F)(F)F)cc1-c1cnc(N)c(C#Cc2cncnc2)n1 (centres unmarked) [Example 56, 2-(3-(5-amino-6-(pyrimidin-5-ylethynyl)pyrazin-2-yl)-4-methylphenyl)-3,3,3-trifluoro-2-hydroxypropanamide]	< 100	< 100	–	–
Cc1ccc(C(O)(C(N)=O)C(F)(F)F)cc1-c1cnc(N)c(C#Cc2cnccn2)n1 (centres unmarked) [Example 57, 2-(3-(5-amino-6-(pyrazin-2-ylethynyl)pyrazin-2-yl)-4-methylphenyl)-3,3,3-trifluoro-2-hydroxypropanamide]	< 100	< 100	–	–
Cc1ccc(C(O)(C(N)=O)C(F)(F)F)cc1-c1cnc(N)c(C#Cc2ccc(C#N)cc2)n1 (centres unmarked) [Example 58, 2-(3-(5-amino-6-((4-cyanophenyl)ethynyl)pyrazin-2-yl)-4-methylphenyl)-3,3,3-trifluoro-2-hydroxypropanamide]	< 100	< 100	–	–
Cc1ccc(C(O)(C(N)=O)C(F)(F)F)cc1-c1cnc(N)c(C#Cc2ccc(CC#N)cc2)n1 (centres unmarked) [Example 59, 2-(3-(5-amino-6-((4-(cyanomethyl)phenyl)ethynyl)pyrazin-2-yl)-4-methylphenyl)-3,3,3-trifluoro-2-hydroxypropanamide]	< 100	< 100	–	–
COc1cc(C#Cc2nc(-c3cc(C(O)(C(N)=O)C(F)(F)F)ccc3C)cnc2N)cc(OC)c1 (centres unmarked) [Example 60, 2-(3-(5-amino-6-((3,5-dimethoxyphenyl)ethynyl)pyrazin-2-yl)-4-methylphenyl)-3,3,3-trifluoro-2-hydroxypropanamide]	< 100	< 100	–	–
Cc1ccc(C(O)(C(N)=O)C(F)(F)F)cc1-c1cnc(N)c(C#Cc2cccc(F)c2)n1 (centres unmarked) [Example 61, 2-(3-(5-amino-6-((3-fluorophenyl)ethynyl)pyrazin-2-yl)-4-methylphenyl)-3,3,3-trifluoro-2-hydroxypropanamide]	< 100	< 100	–	–
Cc1ccc(C(O)(C(N)=O)C(F)(F)F)cc1-c1cnc(N)c(C#CC(C)(O)C(C)C)n1 (centres unmarked) [Example 62, 2-(3-(5-amino-6-(3-hydroxy-3,4-dimethylpent-1-ynyl)pyrazin-2-yl)-4-methylphenyl)-3,3,3-trifluoro-2-hydroxypropanamide]	< 100	< 100	–	–
Cc1ccc(C(O)(C(N)=O)C(F)(F)F)cc1-c1cnc(N)c(C#CC2CCOCC2)n1 (centres unmarked) [Example 63, 2-(3-(5-amino-6-((tetrahydro-2H-pyran-4-yl)ethynyl)pyrazin-2-yl)-4-methylphenyl)-3,3,3-trifluoro-2-hydroxypropanamide]	< 100	< 100	–	–
Cc1ccc(C(O)(C(N)=O)C(F)(F)F)cc1-c1cnc(N)c(C#CC2(C)CCOCC2)n1 (centres unmarked) [Example 64, 2-(3-(5-amino-6-((4-methyltetrahydro-2H-pyran-4-yl)ethynyl)pyrazin-2-yl)-4-methylphenyl)-3,3,3-trifluoro-2-hydroxypropanamide]	< 100	< 100	–	–
Cc1ccc(C(O)(C(N)=O)C(F)(F)F)cc1-c1cnc(N)c(C#CC2(O)CCN(C)C2=O)n1 (centres unmarked) [Example 65, 2-(3-(5-amino-6-((3-hydroxy-1-methyl-2-oxopyrrolidin-3-yl)ethynyl)pyrazin-2-yl)-4-methylphenyl)-3,3,3-trifluoro-2-]	< 100	< 100	–	–
Cc1cnc(C#Cc2nc(-c3cc(C(O)(C(N)=O)C(F)(F)F)ccc3C)cnc2N)cn1 (centres unmarked) [Example 66, 2-(3-(5-amino-6-((5-methylpyrazin-2-yl)ethynyl)pyrazin-2-yl)-4-methylphenyl)-3,3,3-trifluoro-2-hydroxypropanamide]	< 100	< 100	–	–
COc1cnc(C#Cc2nc(-c3cc(C(O)(C(N)=O)C(F)(F)F)ccc3C)cnc2N)cn1 (centres unmarked) [Example 67, 2-(3-(5-amino-6-((5-methoxypyrazin-2-yl)ethynyl)pyrazin-2-yl)-4-methylphenyl)-3,3,3-trifluoro-2-hydroxypropanamide]	< 100	< 100	–	–
Cc1ccc(C(O)(C(N)=O)C(F)(F)F)cc1-c1cnc(N)c(C#Cc2cn3ccnc3cn2)n1 (centres unmarked) [Example 68, 2-(3-(5-amino-6-(imidazo[1,2-a]pyrazin-6-ylethynyl)pyrazin-2-yl)-4-methylphenyl)-3,3,3-trifluoro-2-hydroxypropanamide]	< 100	< 100	–	–
Cc1ccc(C(O)(C(N)=O)C(F)(F)F)cc1-c1cnc(N)c(-c2ccnn2C)n1 (centres unmarked) [Example 69, 2-(3-(5-Amino-6-(1-methyl-1H-pyrazol-5-yl)pyrazin-2-yl)-4-methylphenyl)-3,3,3-trifluoro-2-hydroxypropanamide trifluoroacetate]	–	–	< 100	< 100
Cc1ccc(C(O)(C(N)=O)C(F)(F)F)cc1-c1cnc(N)c(-n2cccn2)n1 (centres unmarked) [Example 93, 2-(3-(5-Amino-6-(1H-pyrazol-1-yl)pyrazin-2-yl)-4-methylphenyl)-3,3,3-trifluoro-2-hydroxypropanamide]	–	–	< 100	< 100
CNC(=O)C(O)(c1ccc(C)c(-c2cnc(N)c(-n3cncn3)n2)c1)C(F)(F)F (centres unmarked) [Example 94, 2-(3-(5-Amino-6-(1H-1,2,4-triazol-1-yl)pyrazin-2-yl)-4-methylphenyl)-3,3,3-trifluoro-2-hydroxy-N-methylpropanamide trifluoroacetate]	–	–	< 100	< 100
Cc1ccc(C(O)(C(=O)N(C)C)C(F)(F)F)cc1-c1cnc(N)c(-n2cncn2)n1 (centres unmarked) [Example 95, 2-(3-(5-Amino-6-(1H-1,2,4-triazol-1-yl)pyrazin-2-yl)-4-methylphenyl)-3,3,3-trifluoro-2-hydroxy-N,N-dimethylpropanamide trifluoroacetate]	–	–	100 to 500	100 to 500
CNC(=O)C(O)(c1ccc(C)c(-c2cnc(N)c(-c3cnn(C)c3)n2)c1)C(F)(F)F (centres unmarked) [Example 96, 2-(3-(5-Amino-6-(1-methyl-1H-pyrazol-4-yl)pyrazin-2-yl)-4-methylphenyl)-3,3,3-trifluoro-2-hydroxy-N-methylpropanamide]	–	–	< 100	100 to 500
Cc1ccc(C(O)(C(N)=O)C(F)F)cc1-c1cnc(N)c(-c2ccnn2C)n1 (centres unmarked) [Example 98, 2-(3-(5-Amino-6-(1-methyl-1H-pyrazol-5-yl)pyrazin-2-yl)-4-methylphenyl)-3,3-difluoro-2-hydroxypropanamide]	–	–	< 100	< 100
Cc1ncc(-c2nc(-c3cc(C(O)(C(N)=O)C(F)F)ccc3C)cnc2N)o1 (centres unmarked) [Example 100, 2-(3-(5-amino-6-(2-methyloxazol-5-yl)pyrazin-2-yl)-4-methylphenyl)-3,3-difluoro-2-hydroxypropanamide]	–	–	< 100	< 100
